Measured values as given in patent US20220088016A1, “CANCER TREATMENT USING MULTI-TARGETED KINASE INHIBITOR IN COMBINATION OF PROTEIN KINASE BIOMARKERS” (ZHEJIANG CROWNMAB BIOTECH CO. LTD., priority 2019, published 2022).

Experiments:
Experiment in all cases: Kinase IC50 (Eurofins KinaseProfiler)
Format in all cases: biochemical
Abl (h) = biological target: T1, Abl (h) (Homo sapiens, UniProt P00519)
T1 construct: purchased Eurofins
Method: (§1) CBT-102 were tested against each of the selected kinases using the Eurofins standard KinaseProfder assays and following the relevant standard operating procedures. The required volume of the 50× stock of test compound (CBT-102) was added to the assay well, before a reaction mix containing the enzyme and substrate was added. The reaction was initiated by the addition of ATP at the selected concentration. There was no pre-incubation of the compound with the enzyme/substrate mix prior to ATP addition.
(§2) Data are handled using a custom-built in-house analysis software. Results are expressed as kinase activity remaining, as a percentage of the DMSO control. This is calculated using the following formula: […]
(§3) For IC50 determinations, data are analyzed using XLFit version 5.3 (ID Business Solutions).

Aurora-A (h) = biological target: T2, Aurora-A (h) (Homo sapiens, UniProt O14965)
T2 construct: purchased Eurofins
Method: as §1, §2, §3

Aurora-B (h) = biological target: T3, Aurora-B (h) (Homo sapiens, UniProt Q96GD4)
T3 construct: purchased Eurofins
T3 sequence (Q96GD4 whole entry): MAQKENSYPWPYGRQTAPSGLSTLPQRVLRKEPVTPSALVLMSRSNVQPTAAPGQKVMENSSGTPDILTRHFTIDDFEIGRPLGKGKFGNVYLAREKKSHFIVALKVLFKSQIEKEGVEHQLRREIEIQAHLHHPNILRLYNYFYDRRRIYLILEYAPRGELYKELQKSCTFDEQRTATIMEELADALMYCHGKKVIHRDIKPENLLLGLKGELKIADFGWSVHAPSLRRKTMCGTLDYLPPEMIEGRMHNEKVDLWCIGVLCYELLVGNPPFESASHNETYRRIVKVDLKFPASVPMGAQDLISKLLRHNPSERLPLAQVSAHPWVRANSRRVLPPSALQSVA
Method: as §1, §2, §3

B-Raf (h) = biological target: T4, B-Raf (h) (Homo sapiens, UniProt P15056)
T4 construct: purchased Eurofins
Method: as §1, §2, §3

CDK4/cyclinD3 (h) = biological target: T5, CDK4/cyclinD3 (h) (Homo sapiens, UniProt P11802)
T5 construct: purchased Eurofins (KinaseProfiler service)
Method: as §1, §2, §3

CDKL3 (h) = biological target: T6, CDKL3 (h) (Homo sapiens, UniProt Q8IVW4)
T6 construct: purchased Eurofins (KinaseProfiler service)
Method: as §1, §2, §3

CHK1 (h) = biological target: T7, CHK1 (h) (Homo sapiens, UniProt O14757)
T7 construct: purchased Eurofins (KinaseProfiler service)
T7 sequence (O14757 whole entry): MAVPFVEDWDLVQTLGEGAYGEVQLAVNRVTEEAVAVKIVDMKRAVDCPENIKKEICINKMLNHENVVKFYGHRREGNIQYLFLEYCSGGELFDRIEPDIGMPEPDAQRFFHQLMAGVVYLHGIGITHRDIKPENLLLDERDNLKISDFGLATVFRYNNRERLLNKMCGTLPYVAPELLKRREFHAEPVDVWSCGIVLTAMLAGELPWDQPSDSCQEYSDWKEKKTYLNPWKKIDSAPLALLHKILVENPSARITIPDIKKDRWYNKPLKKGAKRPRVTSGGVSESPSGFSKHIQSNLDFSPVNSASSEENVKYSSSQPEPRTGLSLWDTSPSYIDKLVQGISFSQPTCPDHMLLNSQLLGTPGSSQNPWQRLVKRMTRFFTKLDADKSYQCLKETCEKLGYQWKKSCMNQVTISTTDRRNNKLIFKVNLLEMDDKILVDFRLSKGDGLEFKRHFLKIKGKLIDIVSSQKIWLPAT
Method: as §1, §2, §3

DDR2 (h) = biological target: T8, DDR2 (h) (Homo sapiens, UniProt Q16832)
T8 construct: purchased Eurofins (KinaseProfiler service)
T8 sequence (Q16832 22-855): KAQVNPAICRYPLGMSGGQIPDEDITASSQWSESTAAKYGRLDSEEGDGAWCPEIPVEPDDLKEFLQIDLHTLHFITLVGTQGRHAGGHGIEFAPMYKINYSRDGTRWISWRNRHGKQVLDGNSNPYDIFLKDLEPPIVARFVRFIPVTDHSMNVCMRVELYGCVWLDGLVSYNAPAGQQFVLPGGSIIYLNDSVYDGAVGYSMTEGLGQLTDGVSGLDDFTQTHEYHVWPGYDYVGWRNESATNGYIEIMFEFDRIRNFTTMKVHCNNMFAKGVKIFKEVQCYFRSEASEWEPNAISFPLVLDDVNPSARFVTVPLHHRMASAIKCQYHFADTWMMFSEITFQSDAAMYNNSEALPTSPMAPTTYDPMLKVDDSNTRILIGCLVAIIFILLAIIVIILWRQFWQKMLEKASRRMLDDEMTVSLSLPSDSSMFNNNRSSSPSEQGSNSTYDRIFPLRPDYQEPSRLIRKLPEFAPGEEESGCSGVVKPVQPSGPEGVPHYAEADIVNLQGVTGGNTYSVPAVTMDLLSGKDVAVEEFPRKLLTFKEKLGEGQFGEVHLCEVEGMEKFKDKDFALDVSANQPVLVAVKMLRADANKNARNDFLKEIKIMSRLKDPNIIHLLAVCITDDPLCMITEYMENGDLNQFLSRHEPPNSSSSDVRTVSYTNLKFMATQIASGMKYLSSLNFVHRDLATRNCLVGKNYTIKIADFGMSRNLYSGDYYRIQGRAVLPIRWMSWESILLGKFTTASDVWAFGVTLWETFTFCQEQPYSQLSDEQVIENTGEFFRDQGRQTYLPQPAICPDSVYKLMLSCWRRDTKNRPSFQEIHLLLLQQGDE
Method: as §1, §2, §3

EphB2 (h) = biological target: T9, EphB2 (h) (Homo sapiens, UniProt P29323)
T9 construct: purchased Eurofins (KinaseProfiler service)
Method: as §1, §2, §3

ErbB4 (h) = biological target: T10, ErbB4 (h) (Homo sapiens, UniProt Q15303)
T10 construct: purchased Eurofins (KinaseProfiler service)
Method: as §1, §2, §3

FAK (h) = biological target: T11, FAK (h) (Homo sapiens, UniProt Q05397)
T11 construct: purchased Eurofins (KinaseProfiler service)
Method: as §1, §2, §3

FGFR1 (h) = biological target: T12, FGFR1 (h) (Homo sapiens, UniProt P11362)
T12 construct: purchased Eurofins (KinaseProfiler service)
Method: as §1, §2, §3

FGFR2 (h) = biological target: T13, FGFR2 (h) (Homo sapiens, UniProt P21802)
T13 construct: purchased Eurofins (KinaseProfiler service)
Method: as §1, §2, §3

FGFR3 (h) = biological target: T14, FGFR3 (h) (Homo sapiens, UniProt P22607)
T14 construct: purchased Eurofins (KinaseProfiler service)
Method: as §1, §2, §3

FGFR4 (h) = biological target: T15, FGFR4 (h) (Homo sapiens, UniProt P22455)
T15 construct: purchased Eurofins (KinaseProfiler service)
Method: as §1, §2, §3

Fgr (h) = biological target: T16, Fgr (h) (Homo sapiens, UniProt P09769)
T16 construct: purchased Eurofins (KinaseProfiler service)
T16 sequence (P09769 whole entry): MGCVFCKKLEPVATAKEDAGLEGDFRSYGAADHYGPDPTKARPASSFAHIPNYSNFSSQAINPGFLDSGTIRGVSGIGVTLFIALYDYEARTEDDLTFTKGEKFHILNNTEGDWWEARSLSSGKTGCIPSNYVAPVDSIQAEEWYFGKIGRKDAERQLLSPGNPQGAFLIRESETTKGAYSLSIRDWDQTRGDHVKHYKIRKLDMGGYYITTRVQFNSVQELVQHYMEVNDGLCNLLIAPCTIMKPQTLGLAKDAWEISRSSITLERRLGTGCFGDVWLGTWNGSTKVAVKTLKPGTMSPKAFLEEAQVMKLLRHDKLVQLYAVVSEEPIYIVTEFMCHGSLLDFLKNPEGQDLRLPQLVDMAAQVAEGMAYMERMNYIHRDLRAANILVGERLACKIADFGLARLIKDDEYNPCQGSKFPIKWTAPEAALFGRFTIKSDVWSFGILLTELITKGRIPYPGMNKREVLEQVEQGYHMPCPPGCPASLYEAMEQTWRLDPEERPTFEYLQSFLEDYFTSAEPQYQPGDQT
Method: as §1, §2, §3

Fms (h) (CSF1R) = biological target: T17, Fms (h) (CSF1R) (Homo sapiens, UniProt P07333)
T17 construct: purchased Eurofins (KinaseProfiler service)
Method: as §1, §2, §3

IGF-1R (h) = biological target: T18, IGF-1R (h) (Homo sapiens, UniProt P08069)
T18 construct: purchased Eurofins (KinaseProfiler service)
Method: as §1, §2, §3

IKKβ (h) = biological target: T19, IKKβ (h) (Homo sapiens, UniProt O14920)
T19 construct: purchased Eurofins (KinaseProfiler service)
Method: as §1, §2, §3

IR (h) = biological target: T20, IR (h) (Homo sapiens, UniProt P06213)
T20 construct: purchased Eurofins (KinaseProfiler service)
Method: as §1, §2, §3

JAK2 (h) = biological target: T21, JAK2 (h) (Homo sapiens, UniProt O60674)
T21 construct: purchased Eurofins (KinaseProfiler service)
T21 sequence (O60674 whole entry): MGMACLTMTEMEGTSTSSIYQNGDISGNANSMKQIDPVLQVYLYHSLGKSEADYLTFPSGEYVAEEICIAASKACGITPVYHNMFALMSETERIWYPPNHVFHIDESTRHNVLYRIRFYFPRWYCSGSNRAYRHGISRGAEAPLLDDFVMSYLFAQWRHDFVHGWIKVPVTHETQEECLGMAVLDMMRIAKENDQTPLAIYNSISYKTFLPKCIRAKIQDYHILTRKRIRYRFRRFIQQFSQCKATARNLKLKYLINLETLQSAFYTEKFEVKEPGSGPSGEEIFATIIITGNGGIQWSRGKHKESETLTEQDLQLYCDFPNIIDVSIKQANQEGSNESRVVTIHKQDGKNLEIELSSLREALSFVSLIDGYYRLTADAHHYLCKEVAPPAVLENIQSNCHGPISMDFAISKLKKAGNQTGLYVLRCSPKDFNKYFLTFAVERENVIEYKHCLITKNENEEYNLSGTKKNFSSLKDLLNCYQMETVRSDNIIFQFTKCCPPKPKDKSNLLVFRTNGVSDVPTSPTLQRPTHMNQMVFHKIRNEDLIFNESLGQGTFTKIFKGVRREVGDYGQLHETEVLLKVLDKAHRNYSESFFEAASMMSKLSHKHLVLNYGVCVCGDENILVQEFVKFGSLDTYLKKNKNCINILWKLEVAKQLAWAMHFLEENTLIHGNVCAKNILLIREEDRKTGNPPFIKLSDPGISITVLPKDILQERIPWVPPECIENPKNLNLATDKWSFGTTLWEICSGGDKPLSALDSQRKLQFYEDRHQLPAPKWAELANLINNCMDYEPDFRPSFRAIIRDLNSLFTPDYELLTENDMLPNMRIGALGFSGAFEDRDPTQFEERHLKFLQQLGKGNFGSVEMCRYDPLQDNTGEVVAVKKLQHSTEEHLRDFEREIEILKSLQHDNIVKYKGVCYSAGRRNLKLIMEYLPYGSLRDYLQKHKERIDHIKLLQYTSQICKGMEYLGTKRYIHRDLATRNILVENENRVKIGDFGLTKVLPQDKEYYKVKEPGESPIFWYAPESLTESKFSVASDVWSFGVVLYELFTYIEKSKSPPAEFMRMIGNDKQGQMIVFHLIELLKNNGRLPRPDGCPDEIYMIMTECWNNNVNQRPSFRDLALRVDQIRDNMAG
Method: as §1, §2, §3

MAP4K5 (h) = biological target: T22, MAP4K5 (h) (Homo sapiens, UniProt Q9Y4K4)
T22 construct: purchased Eurofins (KinaseProfiler service)
Method: as §1, §2, §3

Met (h) = biological target: T23, Met (h) (Homo sapiens, UniProt P08581)
T23 construct: purchased Eurofins (KinaseProfiler service)
Method: as §1, §2, §3

MuSK (h) = biological target: T24, MuSK (h) (Homo sapiens, UniProt O15146)
T24 construct: purchased Eurofins (KinaseProfiler service)
Method: as §1, §2, §3

PDGFRβ (h) = biological target: T25, PDGFRβ (h) (Homo sapiens, UniProt P09619)
T25 construct: purchased Eurofins (KinaseProfiler service)
Method: as §1, §2, §3

PKBα (h) = biological target: T26, PKBα (h) (Homo sapiens, UniProt P31749)
T26 construct: purchased Eurofins
Method: as §1, §2, §3

Plk1 (h) = biological target: T27, Plk1 (h) (Homo sapiens, UniProt P53350)
T27 construct: purchased Eurofins
T27 sequence (P53350 whole entry): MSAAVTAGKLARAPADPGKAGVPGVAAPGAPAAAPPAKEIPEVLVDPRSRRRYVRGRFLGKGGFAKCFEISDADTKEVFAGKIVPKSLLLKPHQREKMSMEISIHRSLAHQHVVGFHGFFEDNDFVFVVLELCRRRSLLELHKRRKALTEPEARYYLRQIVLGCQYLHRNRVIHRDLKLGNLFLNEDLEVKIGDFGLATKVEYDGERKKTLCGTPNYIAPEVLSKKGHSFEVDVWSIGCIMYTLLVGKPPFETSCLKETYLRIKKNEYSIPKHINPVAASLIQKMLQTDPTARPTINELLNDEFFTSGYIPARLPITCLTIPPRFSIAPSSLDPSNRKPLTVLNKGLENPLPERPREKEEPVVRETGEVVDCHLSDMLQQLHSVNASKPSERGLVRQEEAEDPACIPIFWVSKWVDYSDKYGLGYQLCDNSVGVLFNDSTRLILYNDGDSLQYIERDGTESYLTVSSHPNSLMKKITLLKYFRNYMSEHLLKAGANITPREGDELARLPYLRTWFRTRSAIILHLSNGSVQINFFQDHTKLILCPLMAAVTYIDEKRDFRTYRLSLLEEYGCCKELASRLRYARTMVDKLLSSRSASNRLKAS
Method: as §1, §2, §3

Ret (V804M) (h) = biological target: T28, Ret (V804M) (h) (Homo sapiens, UniProt P07949, V804M)
T28 construct: purchased Eurofins
T28 sequence (P07949 29-1114 V804M): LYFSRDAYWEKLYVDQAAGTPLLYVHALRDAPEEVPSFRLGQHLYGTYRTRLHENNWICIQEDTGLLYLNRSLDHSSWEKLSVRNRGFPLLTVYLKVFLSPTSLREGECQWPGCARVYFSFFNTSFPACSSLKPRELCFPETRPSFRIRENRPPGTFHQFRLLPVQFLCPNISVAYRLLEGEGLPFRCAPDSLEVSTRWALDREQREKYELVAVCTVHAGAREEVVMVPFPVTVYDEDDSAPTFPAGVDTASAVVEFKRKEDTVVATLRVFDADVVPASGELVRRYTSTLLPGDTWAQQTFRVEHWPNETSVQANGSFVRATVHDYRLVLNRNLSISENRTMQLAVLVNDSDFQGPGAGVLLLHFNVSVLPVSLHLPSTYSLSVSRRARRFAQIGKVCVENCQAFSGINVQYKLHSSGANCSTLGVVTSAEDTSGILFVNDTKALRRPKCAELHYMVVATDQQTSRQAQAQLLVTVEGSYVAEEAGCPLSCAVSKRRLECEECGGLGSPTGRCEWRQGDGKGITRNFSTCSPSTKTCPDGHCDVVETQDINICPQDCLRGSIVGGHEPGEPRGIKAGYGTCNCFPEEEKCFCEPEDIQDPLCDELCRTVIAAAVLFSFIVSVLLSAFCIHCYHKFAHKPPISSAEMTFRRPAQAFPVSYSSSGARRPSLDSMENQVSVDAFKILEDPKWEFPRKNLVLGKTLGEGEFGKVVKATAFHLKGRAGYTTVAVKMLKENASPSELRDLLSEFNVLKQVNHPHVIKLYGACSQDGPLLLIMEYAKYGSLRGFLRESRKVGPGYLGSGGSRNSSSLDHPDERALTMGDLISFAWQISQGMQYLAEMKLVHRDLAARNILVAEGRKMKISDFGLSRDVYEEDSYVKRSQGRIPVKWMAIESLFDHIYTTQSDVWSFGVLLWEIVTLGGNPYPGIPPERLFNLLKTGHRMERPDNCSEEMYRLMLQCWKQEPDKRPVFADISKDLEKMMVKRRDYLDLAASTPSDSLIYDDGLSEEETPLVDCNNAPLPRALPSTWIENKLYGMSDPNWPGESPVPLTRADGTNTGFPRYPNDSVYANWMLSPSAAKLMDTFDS
Method: as §1, §2, §3

Ret (h) = biological target: T29, Ret (h) (Homo sapiens, UniProt P07949)
T29 construct: purchased Eurofins
T29 sequence (P07949 29-1114): as the sequence (P07949 29-1114 V804M) above, with M776V counted along it
Method: as §1, §2, §3

SAPK2a (h) = biological target: T30, SAPK2a (h) (Homo sapiens, UniProt Q16539)
T30 construct: purchased Eurofins
Method: as §1, §2, §3

SAPK3 (h) = biological target: T31, SAPK3 (h) (Homo sapiens, UniProt P53778)
T31 construct: purchased Eurofins
Method: as §1, §2, §3

TYK2 (h) = biological target: T32, TYK2 (h) (Homo sapiens, UniProt P29597)
T32 construct: purchased Eurofins
Method: as §1, §2, §3

cKit (V560G) (h) = biological target: T33, cKit (V560G) (h) (Homo sapiens, UniProt P10721, V560G)
T33 construct: purchased Eurofins (KinaseProfiler service)
Method: as §1, §2, §3

cSRC (h) = biological target: T34, cSRC (h) (Homo sapiens, UniProt P12931)
T34 construct: purchased Eurofins (KinaseProfiler service)
Method: as §1, §2, §3

p70S6K (h) = biological target: T35, p70S6K (h) (Homo sapiens, UniProt P23443)
T35 construct: purchased Eurofins (KinaseProfiler service)
Method: as §1, §2, §3

With `Cc1cc(Oc2cc(NC(=O)C3CC3)ncn2)ccc1NC(=O)Nc1ccc(Cl)c(C(F)(F)F)c1` [CBT-102] the IC50 (Abl (h)) was 1830 nM, the IC50 (Aurora-A (h)) was 1770 nM and the IC50 (Aurora-B (h)) was 525 nM. It also gave an IC50 (B-Raf (h)) of 348 nM, an IC50 (CDK4/cyclinD3 (h)) of over 10 µM and an IC50 (CDKL3 (h)) of over 10 µM. For the same compound, the IC50 (CHK1 (h)) was over 10 µM, the IC50 (DDR2 (h)) was 263 nM and the IC50 (EphB2 (h)) was 418 nM. For the same compound, the IC50 (ErbB4 (h)) was over 10 µM, the IC50 (FAK (h)) was over 10 µM and the IC50 (FGFR1 (h)) was 410 nM. The IC50 (FGFR2 (h)) was 596 nM, the IC50 (FGFR3 (h)) was over 10 µM and the IC50 (FGFR4 (h)) was over 10 µM. It also gave an IC50 (Fgr (h)) of 1430 nM, an IC50 (Fms (h) (CSF1R)) of 43 nM and an IC50 (IGF-1R (h)) of over 10 µM. For the same compound, the IC50 (IKKβ (h)) was over 10 µM, the IC50 (IR (h)) was over 10 µM and the IC50 (JAK2 (h)) was over 10 µM. The IC50 (MAP4K5 (h)) was 24 nM, the IC50 (Met (h)) was 2860 nM and the IC50 (MuSK (h)) was 278 nM. The IC50 (PDGFRβ (h)) was 1320 nM, the IC50 (PKBα (h)) was over 10 µM and the IC50 (Plk1 (h)) was over 10 µM. The IC50 (Ret (V804M) (h)) was 693 nM, the IC50 (Ret (h)) was 43 nM and the IC50 (SAPK2a (h)) was 180 nM. It also gave an IC50 (SAPK3 (h)) of 1200 nM, an IC50 (TYK2 (h)) of over 10 µM and an IC50 (cKit (V560G) (h)) of 38 nM. The IC50 (cSRC (h)) was 2500 nM and the IC50 (p70S6K (h)) was over 10 µM.
